Measured values as given in US20250204528A1, “USE OF 2-AMINO-3-INDOLYL BUTYRIC ACID OR 3-METHYLPYRROLIDINE-2-CARBOXYLIC ACID AS PLANT IMMUNITY ELICITOR” (NANJING TIANNONG BIOTECHNOLOGY CO., LTD, priority 2021, published 2025).

Key:
Type in all cases: in vivo
Arabidopsis thaliana = Arabidopsis thaliana under high temperature stress; set-up: Heat damage index: scale not given here; settings: for Heat damage index: 45° C. 12 h, recovery 7 d; for PIABS: photosynthetic performance index after 45° C. 12 h; for Heat damage index reduced by: vs control group
Protocol: Arabidopsis thaliana seeds were sown in a pot with the diameter of 8.5 cm according to about 50 seeds per pot and planted in a greenhouse at 25° C. with the humidity of 60%-70% and the light intensity of 100 μmolm^−2s^−1 (16 h light/8 h dark). The treatment was started when the Arabidopsis thaliana normally grew for 21 d. Concentrations at 0 nm, 1 nm, 10 nm, 100 nm and 1,000 nm were set in the experiment. Meanwhile, 0.02% Tween 20 was added as a surfactant and four replicates were set. The spraying treatment was the same as that of the ryegrass in example 5. 24 h after the second spraying, the Arabidopsis thaliana was transferred to an illumination incubator at 45° C. for a high temperature stress treatment for 12 h. The chlorophyll fluorescences of the Arabidopsis thaliana leaf wafers were measured by using the plant efficiency Handy-PEA. The plants were taken out and transferred to the greenhouse at 25° C. for recovery for 7 d. The damage conditions of the plants were observed and counted, and the heat damage grades were calculated.

[1] = tested on: tea trees (Baiye 1 cutting seedlings); experiment: Tea tree under low temperature stress; settings: for Cold damage index (%): 24 h at −4° C., recovery 3 d; for PIABS: after 24 h at −4° C.; for Cold damage index reduced by / PIABS of the tea leaves improved by: vs control
Protocol: The test tea trees were Baiye 1 cutting seedlings.
The tea seedlings with consistent growth vigor were selected to be transplanted into a plastic pot with the diameter of 18 cm and placed in a greenhouse at 25° C. and with the humidity of 60%-70% to be adapted for growing for about one week for the experiment. Concentrations at 0 nm, 1 nm, 10 nm, 100 nm and 1,000 nm were set in the experiment. Meanwhile, 0.02% Tween 20 was added as a surfactant. The spraying treatment was the same as that of the ryegrass in example 1. A low temperature stress was performed for 24 h at −4° C. The tea seedlings after the stress was finished were taken out and subjected to a dark treatment at normal temperature for 30 min. The chlorophyll fluorescences of leaves at the tops of the tea seedlings were measured by using the plant efficiency Handy-PEA. Then the tea seedlings were placed in the greenhouse at 25° C. for recovery for 3 d. The cold damage conditions were observed, counted and graded. The cold damage index counting and grading standard was shown in table 13 and a calculation formula was as follows.

hydroponic wheat = experiment: Wheat under drought stress (25% PEG-6000); settings: for Drought damage index (%) / Dry weight(g) Overground part / Dry weight(g) Underground part / Fresh weight (g) Overground part / Fresh weight (g) Underground part / Root length (cm): 25% PEG-6000 6 d, recovery 7 d; for Drought damage index reduced by / Fresh weight of the overground part improved by / Fresh weight of the underground part improved by / Root length of the wheat seedlings increased by: compared with the control group
Protocol: A 6-mesh sieve was used as a container to hydroponic wheat, 50 grains were sieved each time, a ½ Hoagland nutrient solution was replaced every other two days, a 2-amino-3-indolyl butyric acid solution was sprayed on the leaf surfaces when the wheat grew to a stage of two true leaves and one terminal bud, wherein the concentrations of 2-amino-3-indolyl butyric acid were 0 nm, 100 nm and 1,000 nm, and meanwhile, 0.02% of Tween-20 was added as a surfactant. After continuously spraying for two days, on the third day, the hydroponic nutrient solution was replaced with a ½ Hoagland nutrient solution containing 25% PEG-6000 to perform a stress treatment, a rehydration treatment was performed after the drought stress for 6 d, the wheat recovered to grow for 7 d in a normal nutrient solution, a drought damage index was observed and determined, and the root length and biomass were determined.
The performance characteristics of the leaves subjected to the drought damage were similar to those of the leaves subjected to a salt damage. The drought damage rate and the drought damage index were introduced by using the evaluation index of the salt damage, a drought damage index formula was as follows, and the drought damage grading standard was shown in table 16.

Compound | Heat damage index (Arabidopsis thaliana; 1 nm) | PIABS (Arabidopsis thaliana; 1 nm) [e] | Heat damage index (Arabidopsis thaliana; 10 nm) | PIABS (Arabidopsis thaliana; 10 nm) [days] | Heat damage index (Arabidopsis thaliana; 100 nm) | PIABS (Arabidopsis thaliana; 100 nm) [c] | PIABS increased by (times) compared with the control group (Arabidopsis thaliana; 1,000 nm) [times] | Heat damage index (Arabidopsis thaliana; 1,000 nm) | PIABS (Arabidopsis thaliana; 1,000 nm) [b] | Heat damage index reduced by (Arabidopsis thaliana; 1,000 nm) [%] | Cold damage index (%) ([1]; 1 nm) | PIABS ([1]; 1 nm) | Cold damage index (%) ([1]; 10 nm) | PIABS ([1]; 10 nm) [c] | Cold damage index (%) ([1]; 100 nm) | PIABS ([1]; 100 nm) | Cold damage index (%) ([1]; 1,000 nm) | PIABS ([1]; 1,000 nm) [a] | Cold damage index reduced by ([1]; 1,000 nm) [%] | PIABS of the tea leaves improved by ([1]; 1,000 nm) [%] | also measured
CC(c1c[nH]c2ccccc12)C(N)C(=O)O (stereo not drawn) | 58 | 0.90 ± 0.04 | 46 | 1.14 ± 0.15 | 33 | 3.28 ± 0.20 | 20 | 10 | 7.13 ± 0.23 | 65 | 52 | 26.3 ± 0.04 | 45 | 30.10 ± 1.70 | 35 | 36.51 ± 3.14ab | 28 | 39.36 ± 2.15 | 40 | 52 | Drought damage index (%) (hydroponic wheat; 100 nm): 44%; Dry weight(g) Overground part (hydroponic wheat; 100 nm): 0.82 ± 0.01b g; Dry weight(g) Underground part (hydroponic wheat; 100 nm): 0.35 ± 0.01a g; Fresh weight (g) Overground part (hydroponic wheat; 100 nm): 7.28 ± 0.05b g; Fresh weight (g) Underground part (hydroponic wheat; 100 nm): 3.66 ± 0.01b g; Root length (cm) (hydroponic wheat; 100 nm): 13.97 ± 0.03a cm; Drought damage index (%) (hydroponic wheat; 1,000 nm): 24%; Dry weight(g) Overground part (hydroponic wheat; 1,000 nm): 0.90 ± 0.05a g; Dry weight(g) Underground part (hydroponic wheat; 1,000 nm): 0.38 ± 0.01a g; Fresh weight (g) Overground part (hydroponic wheat; 1,000 nm): 8.87 ± 0.09a g; Fresh weight (g) Underground part (hydroponic wheat; 1,000 nm): 4.51 ± 0.02a g; Root length (cm) (hydroponic wheat; 1,000 nm): 14.60 ± 0.01a cm; Drought damage index reduced by (hydroponic wheat; 1,000 nm): 44%; Fresh weight of the overground part improved by (hydroponic wheat; 1,000 nm): 44.93%; Fresh weight of the underground part improved by (hydroponic wheat; 1,000 nm): 54.98%; Root length of the wheat seedlings increased by (hydroponic wheat; 1,000 nm): 10.86%
CC1CCNC1C(=O)O (stereo not drawn) [3-methylpyrrolidine-2-carboxylic acid] | 48 | 1.87 ± 0.03 | 37 | 4.06 ± 0.17 | 30 | 6.53 ± 0.23 | 23 | 8 | 10.26 ± 0.46 | 68 | 47 | 23.01 ± 0.02 | 43 | 29.65 ± 1.81 | 34 | 35.01 ± 0.27b | 27 | 41.07 ± 0.31 | 48 | 138 | Drought damage index (%) (hydroponic wheat; 100 nm): 39%; Dry weight(g) Overground part (hydroponic wheat; 100 nm): 0.98 ± 0.07b g; Dry weight(g) Underground part (hydroponic wheat; 100 nm): 0.47 ± 0.05b g; Fresh weight (g) Overground part (hydroponic wheat; 100 nm): 7.83 ± 0.10b g; Fresh weight (g) Underground part (hydroponic wheat; 100 nm): 3.85 ± 0.05b g; Root length (cm) (hydroponic wheat; 100 nm): 14.50 ± 0.21b cm; Drought damage index (%) (hydroponic wheat; 1,000 nm): 20%; Dry weight(g) Overground part (hydroponic wheat; 1,000 nm): 1.11 ± 0.06a g; Dry weight(g) Underground part (hydroponic wheat; 1,000 nm): 0.55 ± 0.03a g; Fresh weight (g) Overground part (hydroponic wheat; 1,000 nm): 9.12 ± 0.13a g; Fresh weight (g) Underground part (hydroponic wheat; 1,000 nm): 4.67 ± 0.11a g; Root length (cm) (hydroponic wheat; 1,000 nm): 15.03 ± 0.31a cm; Drought damage index reduced by (hydroponic wheat; 1,000 nm): 61%; Fresh weight of the overground part improved by (hydroponic wheat; 1,000 nm): 44.08%; Fresh weight of the underground part improved by (hydroponic wheat; 1,000 nm): 36.55%; Root length of the wheat seedlings increased by (hydroponic wheat; 1,000 nm): 12.58%
